Assays:
[1] = system: T cells co-cultured with TCM treated macrophages; assay: Macrophage - T cell co-culture (activation and proliferation); assay type: cell-based, mouse
Protocol: Peritoneal macrophages were seeded into 10 cm plates and treated with EO771 conditioned medium with or without emodin for 24 h. The cells were then washed with PBS and resuspended. T cells were isolated from the spleens of C57BL/6 mice using EasySep T cell isolation kit (Stem Cell Technologies) according to the manufacturer's instructions. For the proliferation assay, T cells were labeled with CSFE and then mixed with macrophages and CD3/CD28 DYNA beads in a 1:1:1 ratio and added to 12 well plates in triplicate. For the activation assay, the T cells were collected after 24 h and stained with anti-CD3, anti-CD4, and anti-CD69 for 30 min at 4° C. The cells were then analyzed on a BD FACS flow cytometer. For the proliferation assay, T cells were collected after 72 h and stained with anti-CD3 and anti-CD4. The cells were analyzed for CSFE depletion on a Beckman Coulter FC500.

[2] = system: mouse peritoneal macrophages; assay: Whole genome microarray, macrophages stimulated with IL4; assay type: cell-based
Protocol: Three milliliters of 4% Thioglycolate solution was injected intraperitoneally into 8-12 week old C57BL/6 mice. Three days later, macrophages were collected by lavaging the peritoneal cavity with PBS. The cells were then resuspended in DMEM containing 10% FBS. After 2 h, non-adherent cells were washed away with PBS and the macrophages were cultured overnight in serum free DMEM. The macrophages were then treated with DMEM containing IL4 (10 ng/ml, BioAbChem Inc. Ladson, S.C.) or LPS (100 ng/ml, Sigma-Aldrich) and IFNγ (20 ng/ml, BioAbChem Inc) with or without emodin. Emodin was purchased from Nanjing Langze Medicine and Technology Co. Ltd (Nanjing, China) and dissolved in DMSO at a concentration of 10 mg/ml as a stock solution.
Microarray analysis was carried out as described previously, with a few alterations. Macrophages were stimulated with IL4 for 6 h or LPS+IFNγ for 24 h with or without emodin (50 μM). Samples were prepared in biological replicates of 4. Cells were lysed with Qiazol and RNA was extracted using Qiagen's miRNeasy kit. Agilent's 2100 Bioanalyzer was used to determine the quality and quantity of the RNA. […] The RNA was amplified and labeled with Agilent's Low Input Quick Amp Labeling Kit (Agilent) according to the manufacturer's instructions. Labeled RNA was then purified using Qiagen's RNeasy Mini Kit (Qiagen, Valencia, Calif.) and dye incorporation and cRNA yield were assessed. Labeled samples were hybridized to Agilent Whole Mouse Genome Microarrays 8×60K (Agilent) using Agilent's Gene Expression Hybridization Kit (Agilent) according to the manufacturer's instructions. Microarray analysis was performed using an Agilent DNA Microarray Scanner System (Cat. # G2565CA).
For microarray analysis, data was extracted from images with Feature Extractor Software version 10.7.3.1 (Agilent); background correction using detrending algorithms was performed. Subsequently, background-corrected data was uploaded into GeneSpring GX version 11.5.1 for analysis. In this process, data was log 2 transformed, quantile normalized and baseline transformed using the median of all samples. […] Differentially expressed genes were determined by analysis of the data using the Mann-Whitney unpaired statistics. A cutoff p-value of 0.05 and a fold change cutoff value of 2.0 were used to filter the data. Pathway analysis was performed using Ingenuity Pathway Analysis software.

4T1 cells = assay: Tumor cell gene expression (qPCR); assay type: cell-based, mouse; details: 24 h post-treatment
Protocol: (§1) For qPCR, cells were lysed with Qiazol, and RNA was extracted using Zymo research Direct-zol RNA isolation kit. cDNA was then made from 1 μg of RNA using iScript cDNA Synthesis Kit (Bio-Rad Life Science, Hercules, Calif.). Run conditions were 95° C. for 10 s, 58° C. for 15 s, 70° C. for 15 s. Samples were run in duplicate on a Bio-rad CFX Real Time thermocycler.

EO771 cells = assay: Tumor cell gene expression (qPCR); assay type: cell-based, mouse; details: 24 h post-treatment
Protocol: as §1

4T1 tumors = assay: Survival after surgical removal of primary 4T1 tumors; assay type: in vivo, BALB/c mice; details: 10 mice
Protocol: A cohort of 30 8-week-old, female BALB/c mice were injected with 2×10^5 4T1 cells suspended in 20 μL PBS in each of their fourth mammary fat pads. The mice were randomly divided into three groups with 10 mice in each group. On day 10, tumors had reached a volume of 100-200 mm^3, and were surgically removed. […] Post-surgical treatment began on day 11. This treatment involved each of the three groups receiving 800 μL daily IP injections of one of the following mixtures: PBS with 2% DMSO by volume (Control group), PBS with 1% DMSO by volume and 1% by volume of 50 mg/mL emodin in DMSO, or PBS with 2% by volume of 50 mg/mL emodin in DMSO. […] Daily IP emodin injections were administered until day 24; from day 25 to day 41, emodin was administered every other day. During the 41 days after the tumor removal, 3 mice in the control group died, while 2 mice and 1 mouse died in low emodin group and high emodin group, respectively (FIG. 16).

`Cc1cc(O)c2c(c1)C(=O)c1cc(O)cc(O)c1C2=O` [emodin] was tested, and the “T cell proliferation (CSFE depletion)” value ([1]; TCM and emodin co-treated macrophages, 72 h) was “restored T cell proliferation”, the “suppression of T cell activation (CD69 on CD4 T cells) by TCM treated macrophages” value ([1]; macrophages pre-treated with emodin along with TCM 24 h, co-culture 24 h) was “completely blocked the suppression” and the “fold reduction of IL4 induced expression” value ([2]; Arg1, microarray, emodin 50 μM) was 7.69 fold. The “fold increase of expression under IL4 stimulation” value (shortened to “fold increase of expression”) ([2]; CXCL2, microarray) was 60.6 fold, the “fold increase of expression” value ([2]; CXCL10, microarray) was 15.5 fold and the “fold reduction of IL4 induced expression” value ([2]; Ch3I3, microarray, emodin 50 μM) was 4.24 fold. The “fold reduction of IL4 induced expression” value ([2]; IRF4, microarray, emodin 50 μM) was 97.43 fold, the “fold reduction of IL4 induced expression” value ([2]; Mrc1, microarray, emodin 50 μM) was 2.29 fold and the “fold reduction of IL4 induced expression” value ([2]; SOCS1, microarray, emodin 50 μM) was 22.9 fold. For the same molecule, the “fold increase of expression” value ([2]; TNFα, microarray) was 2.7 fold, the “IL4 responsive genes whose induced changes were inhibited” value ([2]; emodin 50 μM, IL4 6 h) was about 60% and the “Em + LPS vs. LPS/IFN (gene expression)” value ([2]; gene Arg1, microarray, emodin 50 μM) was −7.69. For the same molecule, the “Em + LPS vs. LPS/IFN (gene expression)” value ([2]; gene CCL7, microarray, emodin 50 μM) was −4.16, the “Em + LPS vs. LPS/IFN (gene expression)” value ([2]; gene CCL11, microarray, emodin 50 μM) was −11.31 and the “Em + LPS vs. LPS/IFN (gene expression)” value ([2]; gene CCL12, microarray, emodin 50 μM) was 2.30. The “Em + LPS vs. LPS/IFN (gene expression)” value ([2]; gene CCL28, microarray, emodin 50 μM) was 2.27, the “Em + LPS vs. LPS/IFN (gene expression)” value ([2]; gene CDH1, microarray, emodin 50 μM) was −5.72 and the “Em + LPS vs. LPS/IFN (gene expression)” value ([2]; gene CDKN1A, microarray, emodin 50 μM) was 29.78. The “Em + LPS vs. LPS/IFN (gene expression)” value ([2]; gene CISH, microarray, emodin 50 μM) was −7.11, the “Em + LPS vs. LPS/IFN (gene expression)” value ([2]; gene CXCL2, microarray, emodin 50 μM) was 60.63 and the “Em + LPS vs. LPS/IFN (gene expression)” value ([2]; gene CXCL10, microarray, emodin 50 μM) was 15.05. For the same molecule, the “Em + LPS vs. LPS/IFN (gene expression)” value ([2]; gene CXCR1, microarray, emodin 50 μM) was 12.40, the “Em + LPS vs. LPS/IFN (gene expression)” value ([2]; gene Ccl2, microarray, emodin 50 μM) was −4.26 and the “Em + LPS vs. LPS/IFN (gene expression)” value ([2]; gene Chi3I3, microarray, emodin 50 μM) was −4.24. For the same molecule, the “Em + LPS vs. LPS/IFN (gene expression)” value ([2]; gene FCGR2B, microarray, emodin 50 μM) was −2.15, the “Em + LPS vs. LPS/IFN (gene expression)” value ([2]; gene FLT1, microarray, emodin 50 μM) was −27.09 and the “Em + LPS vs. LPS/IFN (gene expression)” value ([2]; gene IL1R1, microarray, emodin 50 μM) was −2.15. For the same molecule, the “Em + LPS vs. LPS/IFN (gene expression)” value ([2]; gene IL6, microarray, emodin 50 μM) was −5.30, the “Em + LPS vs. LPS/IFN (gene expression)” value ([2]; gene IL19, microarray, emodin 50 μM) was −20.01 and the “Em + LPS vs. LPS/IFN (gene expression)” value ([2]; gene IRF4, microarray, emodin 50 μM) was −97.43. The “Em + LPS vs. LPS/IFN (gene expression)” value ([2]; gene IRF5, microarray, emodin 50 μM) was −2.58, the “Em + LPS vs. LPS/IFN (gene expression)” value ([2]; gene ITGB8, microarray, emodin 50 μM) was −4.32 and the “Em + LPS vs. LPS/IFN (gene expression)” value ([2]; gene MMP13, microarray, emodin 50 μM) was 3.68. For the same molecule, the “Em + LPS vs. LPS/IFN (gene expression)” value ([2]; gene Mrc1, microarray, emodin 50 μM) was −2.29, the “Em + LPS vs. LPS/IFN (gene expression)” value ([2]; gene PLA2G5, microarray, emodin 50 μM) was 4.26 and the “Em + LPS vs. LPS/IFN (gene expression)” value ([2]; gene PTGS2, microarray, emodin 50 μM) was 2.56. For the same molecule, the “Em + LPS vs. LPS/IFN (gene expression)” value ([2]; gene RBP4, microarray, emodin 50 μM) was −15.56, the “Em + LPS vs. LPS/IFN (gene expression)” value ([2]; gene SOCS1, microarray, emodin 50 μM) was −22.90 and the “Em + LPS vs. LPS/IFN (gene expression)” value ([2]; gene SOCS2, microarray, emodin 50 μM) was −5.47. For the same molecule, the “Em + LPS vs. LPS/IFN (gene expression)” value ([2]; gene TNF, microarray, emodin 50 μM) was 2.69, the “expression of CDKN1A (p21)” value ([2]; microarray) was “increased the expression” and the “expression of M2 genes YM1 and Mrc1 in IL4-stimulated cells” value ([2]; microarray) was “reducing them”. The “expression of MCP1, CSF1, and CSF2” value (4T1 cells) was “significantly inhibited”, the “tumor cell expression of Thy1” value (4T1 cells) was “significantly inhibited” and the “expression of MCP1, CSF1, and CSF2” value (EO771 cells) was “significantly inhibited”. The “tumor cell expression of Thy1” value (EO771 cells) was “significantly inhibited”, the “mice that died during the 41 days after tumor removal” value (4T1 tumors; high emodin dose group, approximately 40 mg/kg IP) was 1 mouse and the “mice that died during the 41 days after tumor removal” value (4T1 tumors; low emodin dose group, approximately 20 mg/kg IP) was 2 mice.

— patent publication US9795570B2, “Modulation of macrophage phenotype by emodin” (University of South Carolina, priority 2016, dated 2017)
